Results: patent US20090005385A1, “Treatment or Prevention of Cancer or Cardiovascular Disease with Methenyltetrahydrofolate Synthetases” (CORNELL RESEARCH FOUNDATION, INC., priority 2004, published 2009)

Columns and labels:
[1] = molecular target: T1, recombinant mouse MTHFS protein (Mus musculus, UniProt Q9D110); settings: equilibrium binding
T1 sequence (Q9D110 1-203): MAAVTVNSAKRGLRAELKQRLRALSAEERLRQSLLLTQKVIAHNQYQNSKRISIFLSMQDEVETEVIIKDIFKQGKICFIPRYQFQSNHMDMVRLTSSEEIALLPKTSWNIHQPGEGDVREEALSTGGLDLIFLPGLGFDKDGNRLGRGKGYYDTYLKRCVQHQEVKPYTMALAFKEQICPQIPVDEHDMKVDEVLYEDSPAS

MCF-7 cells [2] = experiment: Folate turnover in cultured cells (pulse-chase); type: cell-based, human; settings: 20 μM in chase medium
Method: Cell monolayers at 75% confluence were washed with PBS, then labeled for 12 h in defined αMEM lacking folate and glycine and supplemented with 25 nM (6S)-[^3H]5-formylTHF. For the chase, cell monolayers were washed with 10 ml of PBS, trypsinized, and pelleted by centrifugation. The cells were seeded in triplicate (1×10^6 cells) into 100 mm culture plates containing 10 ml of defined αMEM supplemented with 2 μM folic acid. Catecholamines (20 μM dopamine, NADA, and L-dopa) were prepared freshly and added to the chase media prior to the addition of labeled cells. Cells were harvested at defined time points, the medium was removed and the tritium in the medium was quantified. The cell monolayers were washed with PBS and lysed with 0.2 M ammonium hydroxide. Tritium remaining in the cells was quantified using a Beckman LS 8100 liquid scintillation counter.
Catecholamine availability may be rate limiting for MTHFS-catalyzed folate catabolism in MCF-7 cells. The effects of exogenous catecholamines on folate turnover rates were determined using pulse-chase analyses in MCF-7 cells. Folate turnover in MCF-7 cells labeled with [^3H]-5-formylTHF is biphasic, with an initial rapid phase of turnover followed by a slower phase (Anguera et al., J. Biol. Chem. 278:29856-29862 (2003), which is hereby incorporated by reference in its entirety). Addition of 20 μM NADA to the chase medium increased the magnitude of the rapid phase of folate turnover by 12% compared to untreated cells (FIG. 11A). […] To distinguish between these two mechanisms, 20 μM dopamine and L-dopa were added to the chase medium. Dopamine is the precursor of NADA, and both dopamine and L-dopa can function as oxidants following oxidation of their diphenolic ring generating dopamine-quinone or dopa-quinone (Rescigno et al., Biochemical Pharmacology 56:1089-1096 (1998); Graham, D. G. Mol. Pharmacol. 14:633-643 (1978), which are hereby incorporated by reference in their entirety). […] The addition of dopamine to the culture medium increased the magnitude of the rapid phase of folate turnover by only 4% relative to untreated cells (FIG. 11A). The minor effect of dopamine on folate turnover may reflect N-acetyltransferase-mediated dopamine acetylation that generating NADA. […] In summary, the pulse chase experiments indicate that NADA may be limiting for in vivo folate catabolism, and NADA may function specifically as the electron acceptor molecule for MTHFS-mediated folate catabolism.

MCF-7 cells [3] = experiment: Radiolabeled folate accumulation in cultured cells treated with catecholamines; type: cell-based, human; settings: 12 h, 25 nM (6S)-[^3H]-5-formylTHF, 0-150 μM catecholamine
Method: (§1) Cell monolayers at 70% confluence in 6-well plates were labeled for 12 h in defined αMEM lacking folate and glycine, but supplemented with 25 nM (6S)-[^3H]5-formylTHF and 0, 25 μM, 50 μM, 75 μM, 100 μM, or 150 μM NADA, dopamine, or epinephrine. Cells were harvested by washing with 5 mL PBS, trypsinized, and pelleted by centrifugation and viable cells (determined by their ability to exclude trypan blue) were quantified. The cell pellets were lysed with 0.2 M ammonium hydroxide, and the intracellular tritium was quantified using a Beckman LS 8100 liquid scintillation counter.
Because the addition of NADA to the chase medium increased folate turnover rates in MCF-7 cells, the effects of various catecholamines on [^3H]folate accumulation was investigated. Cells were cultured for 12 h in defined αMEM medium containing 25 nM (6S)-[^3H]-5-formylTHF and various concentrations of NADA, dopamine, and epinephrine, and cellular [^3H]folate content was determined.

cell cultures = settings: substrate for FPGS; cited from earlier work
MTHFS [4] = experiment: Inhibition of MTHFS-catalyzed conversion of 5-formylTHF to 5,10-methenylTHF (spectrophotometric assay); type: biochemical
Method: Tissue samples were sonicated four times for 15 s in a buffer containing 100 mM HEPES pH 7.0, 100 mM sodium chloride, 5 mM EDTA, 1% Tween-20. The solution was clarified by centrifugation. MTHFS activity was determined using a spectrophotometer by monitoring the appearance of 5,10-methenyltetrahydrofolate, which has an absorbance maximum at 355 nm. For a typical assay, 50 μL of clarified tissue supernatant was added to a quartz cuvette containing 100 μM (6S)-5-formylTHF, 1 mM Mg-ATP and 100 mM MES, pH 6.0 and the rate of 5,10-methenylTHF formation was quantified. Activity measurements were normalized to total protein that was quantified using the Lowry-Bensadoun method (Bensadoun et al., “Assay of Proteins in the Presence of Interfering Materials,” Anal Biochem 70:241-250 (1976), which is hereby incorporated by reference in its entirety).
The UV spectrum of purified rabbit liver MTHFS differs from the spectrum of recombinant mouse MTHFS (FIG. 4). Therefore, it was investigated whether rabbit liver MTHFS could be reconstituted with NADA resulting in a change in the UV spectrum of the protein. […]

MCF-7 cells [5] = experiment: Cell viability (trypan blue) after catecholamine treatment; type: cell-based, human; settings: 12 h, various concentrations
Method: FIG. 12A-B show the effect of NADA, dopamine, and epinephrine on folate accumulation and cell viability in MCF-7 cells. MCF-7 cells were incubated with 25.0 nM (6S)-[^3H]5-formylTHF and various concentrations of NADA, dopamine, and epinephrine for 12 h, then viable cells were quantified using trypan blue staining. […] All values were normalized to cpm for untreated cells, and untreated cells were given an arbitrary value of 100%. […] Cell viability is expressed as the percent of viable cells divided by the total number of cells. Total [^3H]folate compounds were quantified in cell lysates by liquid scintillation. All values represent quadruplicate measures, and error bars are standard deviations of the mean.
as §1

mouse enzyme GARFT = mouse enzyme GARFT (Mus musculus, UniProt Q64737); settings: read-out: Ki mouse GARFT; cited from earlier work
[6] = molecular target: T2, MTHFS.oxNADA.Cu^2+ complex (Mus musculus, UniProt Q9D110); experiment: MTHFS-mediated folate catabolism in vitro (HPLC, pABG formation); type: biochemical; settings: 5 min incubation, five independent experiments
T2 construct: hexa-histidine tag; made in house; host or cells: E. coli BL21 Star
T2 sequence (Q9D110 1-203): T1 sequence (Q9D110 1-203)
Method: Recombinant mouse MTHFS protein (50 μM) was incubated with 50 μM CuCl2, 50 μM NADA (oxidized with equimolar amounts of sodium periodate, extracted with ethyl acetate, and diluted 1:1 with 1 M Tris pH 8.0), in 50 mM Tris pH 8.0 for 5 min, then dialyzed against 2 L of 50 mM Tris pH 8.0 at 4° C. for 5 hours to remove unbound CuCl2 and oxidized NADA. (6S)-[^3H]-5-methylTHF or (6S)-[^3H]-5-formylTHF, were evaporated to dryness using a speedvac, resuspended in 20 μL of 50 μM unlabeled (6S)-5-methylTHF or (6S)-5-formylTHF in 100 mM MES pH 6.5, then approximately 275,000 cpm of the labeled folate was added immediately to either the dialyzed mouse MTHFS protein or the dialysis buffer as a control. The mixture was incubated 5 min at room temperature, then either analyzed immediately by HPLC or flash frozen using dry ice/ethanol. The reactions were spiked with a mixture of unlabeled pABG, (6R,S)-5-formylTHF, and (6S)-5-methylTHF, then analyzed on a Shimadzu HPLC equipped with a diode array UV spectrophotometric detector and a Luna 5μ 250×4.6 mm C18 column (Phenomenex). […] For each analysis, 1.0 ml fractions were collected into scintillation tubes, and the tritium was quantified using a Beckman LS 6500 liquid scintillation counter. […]

MTHFS [7] = molecular target: T3, MTHFS (Homo sapiens, UniProt P49914); settings: cited from earlier work
T3 sequence (P49914 1-203): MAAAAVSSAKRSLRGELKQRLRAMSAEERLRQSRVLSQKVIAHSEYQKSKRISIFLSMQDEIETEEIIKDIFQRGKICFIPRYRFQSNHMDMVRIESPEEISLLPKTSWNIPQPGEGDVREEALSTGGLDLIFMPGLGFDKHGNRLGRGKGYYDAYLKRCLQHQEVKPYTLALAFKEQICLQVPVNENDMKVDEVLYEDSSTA

Chain of mouse enzyme GARFT (Q64737 whole entry): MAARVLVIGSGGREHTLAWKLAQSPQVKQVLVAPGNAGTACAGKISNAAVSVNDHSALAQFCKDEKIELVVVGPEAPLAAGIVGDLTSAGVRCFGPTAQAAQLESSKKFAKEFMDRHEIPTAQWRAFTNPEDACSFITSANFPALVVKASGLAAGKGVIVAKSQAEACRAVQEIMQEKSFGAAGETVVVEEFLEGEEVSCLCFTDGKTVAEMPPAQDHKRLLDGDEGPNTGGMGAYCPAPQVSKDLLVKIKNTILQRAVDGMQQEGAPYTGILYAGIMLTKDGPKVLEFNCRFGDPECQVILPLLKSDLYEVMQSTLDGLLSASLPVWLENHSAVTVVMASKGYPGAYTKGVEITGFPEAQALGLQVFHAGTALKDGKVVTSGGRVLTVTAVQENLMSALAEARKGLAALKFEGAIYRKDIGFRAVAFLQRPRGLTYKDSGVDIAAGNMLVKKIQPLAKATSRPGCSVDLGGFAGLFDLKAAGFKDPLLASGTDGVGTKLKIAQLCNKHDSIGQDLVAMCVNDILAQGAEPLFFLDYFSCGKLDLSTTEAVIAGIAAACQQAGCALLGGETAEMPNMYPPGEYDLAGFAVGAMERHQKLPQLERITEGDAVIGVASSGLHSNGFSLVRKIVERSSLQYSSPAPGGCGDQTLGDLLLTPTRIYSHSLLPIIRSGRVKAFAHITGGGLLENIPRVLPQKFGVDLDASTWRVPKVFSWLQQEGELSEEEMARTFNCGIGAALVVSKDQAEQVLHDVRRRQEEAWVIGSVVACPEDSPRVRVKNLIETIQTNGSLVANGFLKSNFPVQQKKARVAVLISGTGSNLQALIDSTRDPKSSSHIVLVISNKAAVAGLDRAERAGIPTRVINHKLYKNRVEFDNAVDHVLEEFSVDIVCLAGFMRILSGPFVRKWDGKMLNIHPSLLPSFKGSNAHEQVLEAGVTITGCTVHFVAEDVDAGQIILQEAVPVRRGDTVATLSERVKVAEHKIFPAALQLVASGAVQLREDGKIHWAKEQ

## NCCc1ccc(O)c(O)c1 [dopamine]
[1]
  binding to recombinant mouse MTHFS protein: neither dopamine nor oxidized dopamine bind
MCF-7 cells [2]
  increase in magnitude of the rapid phase of folate turnover compared to untreated cells: 4%
MCF-7 cells [3]
  [^3H]folate accumulation: Neither the addition of dopamine nor epinephrine to culture media impaired [^3H]folate accumulation

## Nc1nc(N)c(CCCC(C=O)c2ccc(C(=O)N[C@@H](CCC(=O)O)C(=O)O)cc2)c(=O)[nH]1 (stereo partly drawn) [10-formyl-DDACTHF, 10-formyl-5,10-dideaza-acyclicTHF]
Cell cultures
  accumulation in cell cultures: over 100 fold

## CC(=O)NCCc1ccc(O)c(O)c1 [NADA, N-acetyldopamine]
MCF-7 cells [2]
  increase in magnitude of the rapid phase of folate turnover compared to untreated cells: 12%
  slow phase of folate turnover relative to untreated cells: did not change
MTHFS [4]
  inhibition of MTHFS-catalyzed conversion of 5-formylTHF to 5,10-methenylTHF: did not inhibit
MCF-7 cells [3]
  [^3H]folate accumulation: decreased [^3H]folate accumulation in a dose-dependent manner
MCF-7 cells [5]
  cell viability: NADA-induced cell death

## Nc1nc2c(c(=O)[nH]1)C[C@@H](CCc1ccc(C(=O)N[C@@H](CCC(=O)O)C(=O)O)cc1)CN2 [DDATHF, 5,10-dideazatetrahydrofolate]
Mouse enzyme GARFT
  Ki: 6 nM

## CN1c2c([nH]c(N)nc2=O)NC[C@@H]1CNc1ccc(C(=O)N[C@@H](CCC(=O)O)C(=O)O)cc1 [(6S)-5-methylTHF]
[6]
  conversion to pABG by reconstituted mouse MTHFS.oxNADA.Cu^2+ protein: Approximately 1%
MTHFS [7]
  Ki: 18 µM
